Experimental data as given in patent US20240173353A1, “UNIVERSAL CHIMERIC ANTIGEN RECEPTOR T-CELL AND APPLICATION THEREOF” (SHANGHAI IASO BIOTECHNOLOGY CO., LTD., priority 2021, published 2024).

Experiments:
T cells = assay: T cell activation by anti-CD3/CD28 DynaBeads, CD25/CD69/4-1BB expression by flow cytometry
Source text: The inventors pre-treated T cells with dasatinib or DMSO for 5 hr, then activated T cells with anti-CD3/CD28 DynaBeads for 24 hr, and then detected the expression of activation molecules CD25, CD69 and 4-1BB by flow cytometry.
In order to verify the tolerance of the LCK-T316I mutation to the function of dasatinib, the inventors carried out experimental verification on the T cells with LCK edited with different sgRNA lengths prepared in Example 2.
The inventors isolated CD3-positive T cells from human peripheral blood and divided them into eleven portions for processing, with 1e5 cells in each portion. One of these portions was not treated with dasatinib, anti-CD3/CD28 DynaBeads were not added to activate TCR, and this portion was as the initial control group; the other 10 portions of cells were pretreated with different concentrations of dasatinib for 4 hr, ten concentrations ranging from 0 nM to 50 nM were set, and then anti-CD3/CD28 DynaBeads were added to activate TCR signals overnight. On the second day, the expression of CD25, CD69 and 4-1BB activation signals was detected, and the activation of TCR signals was detected. Two replicates were set for each group of experiments.
The inventors divided each of the three groups of edited cells into 6 sub-groups and cultured them in a flat-bottomed 96-well plate. Each sub-group contained two technical replicates, and each well contained 0.15×10^6 cells. […] Subsequently, the cells were cultured for 18 hr. The activated T cell surface marker molecule 4-1BB was detected by using the APC-labeled murine IgG monoclonal antibody, and the activated T cell surface marker molecule CD25 was detected by using the PE-labeled murine IgG monoclonal antibody, and the activated T cell surface marker CD69 was detected by FITC-labeled murine IgG monoclonal antibody.
The inventors conducted research using two groups of T cells (CBE3 control group and Km edited group) in the above experiments. The experimental procedure is basically the same as the above-mentioned experiment (FIG. 32B). The two groups of edited cells were each divided into 7 sub-groups and cultured them in a flat-bottomed 96-well plate. Each sub-group contained two technical replicates, and each well contained 0.15×10^6 cells. […] Subsequently, the cells were cultured for 18 hr. The activated T cell surface marker molecule 4-1BB was detected by using the APC-labeled murine IgG monoclonal antibody, and the activated T cell surface marker molecule CD25 was detected by using the PE-labeled murine IgG monoclonal antibody, and the activated T cell surface marker CD69 was detected by FITC-labeled murine IgG monoclonal antibody.

anti-CD19-CAR-T cells = assay: CD107a translocation of anti-CD19-CAR-T cells co-incubated with target cells; type: cell-based, human; conditions: LCK-sgRNA16 editing group (43% T316I), 100 nM dasatinib 12 hr, Nalm6 target cells
Source text: First, the inventors edited the prepared anti-CD19 CAR-T by electroporation with the CBE3 protein, the RNP complex of CBE3 and LCK-sgRNA12, and the RNP complex of CBE3 and LCK-sgRNA16 respectively, to achieve three different editing treatments.

anti-BCMA-CAR-T cells = assay: CD107a translocation of anti-BCMA-CAR-T cells co-incubated with target cells; type: cell-based, human; conditions: LCK-sgRNA16 editing group (42% T316I), 100 nM dasatinib 12 hr
NK cells = assay: CD107a release of NK cells activated by K562; type: cell-based, human
Description: The inventor used Miltenyi human NK sorting magnetic beads to separate NK cells from human peripheral blood, and used DAKEWE NK medium to culture and expand them in vitro. On Day 8, a population of NK cells with more than 95% having positive CD56 expression could be obtained. These NK cells were taken out and treated with 0 nM, 100 nM and 200 nM dasatinib respectively for 24 hr, and then divided into two groups, one of which was not activated, and the other group was stimulated with MHC-class I molecule-deficient K562 cells for 5 hr. Then, the CD107a release of NK cells were detected in both of them.
The inventors isolated NK cells from human PBMCs, and then cultured and differentiated them in NK medium to obtain CD56-positive NK cells with a purity higher than 95%. The exploration of the threshold of NK activation with dasatinib was carried out with seven concentrations in the range of 0-50 nM, namely 0, 10, 20, 25, 30, 40 and 50 nM, and the treatment was carried out overnight. The next day, the cells were resuspended with NK medium and activated with K562. Lymphocyte activator was used as a positive control for activation, and a part of NK cells that were not activated by K562 were also kept. Two replicates were set for each group. anti-CD107a antibody and monensin were added while carrying out activation, and after co-incubation for 6 hr, the CD107a release of CD56-positive NK cells was detected by flow cytometry.
The inventors isolated NK cells from human PBMCs, and then cultured and differentiated them in NK medium to obtain CD56-positive NK cells with a purity higher than 95%. Three pretreatments were done respectively (1) absence of dasatinib pretreatment; (2) pretreatment with […] pretreatment with 50 nM dasatinib, and the cells were cultured overnight. The next day, the concentration of dasatinib was reduced, and the concentration was adjusted to 0, 7.5, 12.5, 17.5 and 25 nM respectively. […] Two replicates were set for each group.
In order to repeatedly verify that the inhibition of NK cell activation function by dasatinib has an extended effect, the inventors repeated the above experiment. […] After 4 hr of co-incubation, CD107a release from CD56 positive NK cells was detected.
The inventors used CD3-negative cells in human PBMCs, which contained more than 5% of CD56-positive NK cells. […] The next day, the cells were resuspended with NK medium and activated with K562. Lymphocyte activator was used as a positive control for activation, and a part of NK cells that were not activated by K562 were also kept. Two replicates were set for each group. anti-CD107a antibody and monensin were added while carrying out activation, and after co-incubation for 6 hr, the CD107a release of CD56-positive NK cells was detected by flow cytometry.
The inventors isolated NK cells from human PBMCs, and then cultured and differentiated them in NK medium to obtain CD56-positive NK cells with a purity higher than 95%. […] Two replicates were set for each group.

[1] = cited from earlier work
[2] = T cells, 20 nM dasatinib 4 hr, beads overnight
[3] = T cells, 25 nM dasatinib 4 hr, beads overnight
[4] = T cells, dasatinib increased to 50 nM, beads overnight

Cc1nc(Nc2ncc(C(=O)Nc3c(C)cccc3Cl)s2)cc(N2CCN(CCO)CC2)n1 [dasatinib]
concentration that effectively inhibits T cell activation in vitro (minimum) (T cells; T cells, 0-50 nM gradient): 25 nM | percentage of CD25 and 4-1BB double-positive cells (T cells; [2]): 2.09% | percentage of CD25 and CD69 double-positive cells (T cells; [2]): 8.75% | percentage of CD25 and CD69 double-positive cells (T cells; [3]): 1.06% | percentage of double-positive cells (FIG. 20B, CD25 and 4-1BB as indicators) (T cells; [3]): 0.26% | concentration sufficient to inhibit activation of TCR signaling (T cells; T cells, 5 hr pretreatment, beads 24 hr): 100 nM | percentage of CD25 and CD69 double-positive cells (T cells; [4]): below 1% | percentage of double-positive cells (FIG. 20B, CD25 and 4-1BB as indicators) (T cells; [4]): below 1% | reduction of expression of activation molecules versus no dasatinib (T cells; sgRNA16 group (about 50% edited), 100 nM dasatinib, anti-CD3/CD28 beads): 20%-50% | positive CD107a translocation in CD8 and CAR double-positive cells (anti-CD19-CAR-T cells): 50% | positive CD107a translocation in CD8 and CAR double-positive cells (anti-BCMA-CAR-T cells; RPMI-8226): 44.7% | positive CD107a translocation in CD8 and CAR double-positive cells (anti-BCMA-CAR-T cells; U266B1): 39.6% | concentration that effectively inhibits NK cell activation in vitro (minimum) (NK cells; 0-50 nM overnight, K562 6 hr): 30 nM | concentration enough to inhibit CD107a translocation and activation of NK cells (NK cells; 24 hr treatment, K562 5 hr): 100 nM | cells still activated (NK cells; NK cells without pretreatment, 7.5 nM dasatinib 4 hr, K562): about 4.4% | release of CD107a (NK cells; NK cells, 25 nM and 50 nM pretreatment, changed to 12.5, 17.5 and 25 nM, K562): lower than 1% | release of CD107a (NK cells; NK cells, 25 nM and 50 nM pretreatment, reduced to 7.5 nM, K562): lower than 1% | CD107a translocation (NK cells; NK cells, 100 nM and 200 nM dasatinib 24 hr, K562 5 hr): 2% | release of CD107a (NK cells; NK cells, pretreatment with three dasatinib concentrations (0, 25, 50 nM), reduced to 0 nM, K562): above 58% | positive CD107a release (NK cells; NK cells, repeat, 50 nM pretreatment, reduced to 0 nM, K562 4 hr): 39.7% | basal CD107a translocation (NK cells; non-activated NK cells, 100 nM and 200 nM dasatinib 24 hr): 2% | half-life in vivo [1]: 3 to 4 h
